Source: US20060135435A1, “Agent that retards transformation of hormone-dependent cancer to non-hormone-dependent cancer” (priority 1998, published 2006)

- melting point: 108 to 109 °C
SMILES: C(=C\c1nc(COc2ccc(CCCn3cncn3)cc2)co1)/c1ccccc1 [Reference Example 3, 1-[3-[4-[2-[(E)-2-phenylethenyl]-4-oxazolylmethoxy]phenyl]propyl]-1,2,4-triazole]
